# Measured values reported in patent US20240150340A1, “CDK Inhibitors And Their Use As Pharmaceuticals” (Prelude Therapeutics Incorporated, priority 2022, published 2024).
# Legend:
# CDK2/Cyclin E2 = target: T1, CDK2/Cyclin E2 (Homo sapiens, UniProt P24941); assay: CDK2/CyclinE2 Enzymatic Activity Assay (TR-FRET); format: biochemical; conditions: ATP 1 mM final, read-out: CDK2_E1 IC50
# T1 construct: Recombinant protein complex CDK2/Cyclin E2, expressed from insect cell, was purchased from ProQinase
# Outline: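 Recombinant insect-cell CDK2/Cyclin E2 (1 nM) phosphorylated ULight-4E-BP1 (50 nM) with 1 mM ATP in HEPES pH 7.4 buffer, after 20 min compound preincubation; MgCl2 (10 mM) started the 45 min reaction at 37° C. Europium anti-phospho-4E-BP1 TR-FRET read; 9-dose IC50 by 4-parameter fit.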
# CDK4/Cyclin D1 = target: T2, CDK4/Cyclin D1 (Homo sapiens, UniProt P11802); assay: CDK4/CyclinD1 Enzymatic Activity Assay (TR-FRET); format: biochemical; conditions: ATP 2 mM final, read-out: CDK4_D1 IC50
# T2 construct: purchased ProQinase; host or cells: insect cell
# T2 sequence (P11802 whole entry): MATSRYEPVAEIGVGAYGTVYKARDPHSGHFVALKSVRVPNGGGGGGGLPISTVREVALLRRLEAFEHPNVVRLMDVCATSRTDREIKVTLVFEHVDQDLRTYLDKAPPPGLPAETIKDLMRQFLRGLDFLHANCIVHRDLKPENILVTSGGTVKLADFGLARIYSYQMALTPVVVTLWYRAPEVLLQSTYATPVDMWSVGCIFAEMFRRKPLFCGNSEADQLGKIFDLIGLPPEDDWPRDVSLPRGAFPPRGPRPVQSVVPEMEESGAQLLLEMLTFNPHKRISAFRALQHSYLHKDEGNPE
# T2 sequence (P24385 whole entry partner): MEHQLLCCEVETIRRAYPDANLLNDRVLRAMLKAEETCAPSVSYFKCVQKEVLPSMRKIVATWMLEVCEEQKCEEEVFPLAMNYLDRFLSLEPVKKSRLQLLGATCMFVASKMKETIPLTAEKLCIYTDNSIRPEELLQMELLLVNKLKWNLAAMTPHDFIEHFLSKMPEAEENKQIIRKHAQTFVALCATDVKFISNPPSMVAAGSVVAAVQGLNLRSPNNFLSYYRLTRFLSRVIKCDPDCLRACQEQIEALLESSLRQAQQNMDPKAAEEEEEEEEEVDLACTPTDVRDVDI
# Outline: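 Insect-cell-expressed CDK4/Cyclin D1 (1 nM) with ULight-4E-BP1 (100 nM) and 2 mM ATP in HEPES pH 7.4; 9-dose 3-fold compound series preincubated 20 min, reaction started with 10 mM MgCl2, 45 min at 37° C. Europium anti-P-4E-BP1 TR-FRET read; IC50 from 4-parameter Hill fit.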
# OVCAR3 p-RB = assay: pRB ICW Assay in OVCAR3 Cells; format: cell-based; conditions: Homo sapiens, OVCAR-3, incubated with compound for 2 hours
# Outline: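 In-Cell Western on OVCAR3: phospho-RB antibody signal with DRAQ5 counterstain read at 700 and 800 nm after fixation. Compounds were applied for 2 h at 37° C. as 9-point ½-log dilutions in duplicate; 10 μM reference compound defined full inhibition.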
SMILES,IC50 (CDK2/Cyclin E2),IC50 (CDK4/Cyclin D1),IC50 (OVCAR3 p-RB)
"Cn1cc(S(=O)(=O)N2CCC(Nc3ncc(C(F)(F)F)c(-c4ncc(C(O)C(F)(F)F)s4)n3)CC2)cn1 (stereo not drawn) [Example 61, 2,2,2-trifluoro-1-(2-(2-((1-((1-methyl-1H-pyrazol-4-yl)sulfonyl)piperidin-4-yl)amino)-5-(trifluoromethyl)pyrimidin-4-yl)thiazol-5-yl)ethan-1-ol]",≤ 100 nM,≤ 100 nM,≤ 100 nM
"Cn1cc(S(=O)(=O)N2CCC(Nc3ncc(C(F)(F)F)c(-c4ncc(CC(C)(C)O)s4)n3)CC2)cn1 [Example 62, 2-methyl-1-(2-(2-((1-((1-methyl-1H-pyrazol-4-yl)sulfonyl)piperidin-4-yl)amino)-5-(trifluoromethyl)pyrimidin-4-yl)thiazol-5-yl)propan-2-ol]",≤ 100 nM,≤ 100 nM,≤ 100 nM
"CC(O)c1cnc(-c2nc(NC3CCN(S(=O)(=O)c4cn(C)cn4)CC3)ncc2C(F)(F)F)s1 (stereo not drawn) [Example 63, 1-(2-(2-((1-((1-methyl-1H-imidazol-4-yl)sulfonyl)piperidin-4-yl)amino)-5-(trifluoromethyl)pyrimidin-4-yl)thiazol-5-yl)ethan-1-ol]",≤ 100 nM,≤ 100 nM,≤ 100 nM
"Cc1cnc(-c2nc(N[C@H]3CCN(S(=O)(=O)c4cn(C)cn4)C[C@H]3C)ncc2C(F)(F)F)s1 [Example 64, N-((3R,4S)-3-methyl-1-((1-methyl-1H-imidazol-4-yl)sulfonyl)piperidin-4-yl)-4-(5-methylthiazol-2-yl)-5-(trifluoromethyl)pyrimidin-2-amine]",≤ 100 nM,100 to 500 nM,> 500 nM
"Cc1cnc(-c2nc(NC3CCN(S(C)(=O)=O)CC3)ncc2C(F)(F)F)s1 [Example 65, N-(1-(methylsulfonyl)piperidin-4-yl)-4-(5-methylthiazol-2-yl)-5-(trifluoromethyl)pyrimidin-2-amine]",≤ 100 nM,≤ 100 nM,100 to 500 nM
"Cn1cnc(S(=O)(=O)N2CC[C@@H](Nc3ncc(C(F)(F)F)c(-c4cc(C(N)=O)ns4)n3)[C@H](F)C2)c1 [Example 66, 5-(2-(((3R,4R)-3-fluoro-1-((1-methyl-1H-imidazol-4-yl)sulfonyl)piperidin-4-yl)amino)-5-(trifluoromethyl)pyrimidin-4-yl)isothiazole-3-carboxamide]",≤ 100 nM,≤ 100 nM,≤ 100 nM
"Cn1cnc(S(=O)(=O)N2CC[C@H](Nc3ncc(C(F)(F)F)c(-c4cc(C(N)=O)ns4)n3)[C@H](F)C2)c1 [Example 67, 5-(2-(((3R,4S)-3-fluoro-1-((1-methyl-1H-imidazol-4-yl)sulfonyl)piperidin-4-yl)amino)-5-(trifluoromethyl)pyrimidin-4-yl)isothiazole-3-carboxamide]",≤ 100 nM,≤ 100 nM,≤ 100 nM
"CC(O)c1sc(-c2nc(N[C@H]3CCN(S(=O)(=O)c4c[nH]cn4)C[C@H]3C)ncc2C(F)(F)F)cc1C#N (stereo partly drawn) [Example 68, 5-(2-(((3R,4S)-1-((1H-imidazol-4-yl)sulfonyl)-3-methylpiperidin-4-yl)amino)-5-(trifluoromethyl)pyrimidin-4-yl)-2-(1-hydroxyethyl)thiophene-3-carbonitrile]",≤ 100 nM,100 to 500 nM,100 to 500 nM
"Cn1cc(S(=O)(=O)N2CCC(Nc3ncc(C(F)(F)F)c(-c4cc(C#N)cs4)n3)CC2)cn1 [Example 69, 5-(2-((1-((1-Methyl-1H-pyrazol-4-yl)sulfonyl)piperidin-4-yl)amino)-5-(trifluoromethyl)pyrimidin-4-yl)thiophene-3-carbonitrile]",≤ 100 nM,100 to 500 nM,≤ 100 nM
"Cc1sc(-c2nc(NC3CCN(S(C)(=O)=O)CC3)ncc2C(F)(F)F)cc1C(N)=O [Example 70, 2-methyl-5-(2-((1-(methylsulfonyl)piperidin-4-yl)amino)-5-(trifluoromethyl)pyrimidin-4-yl)thiophene-3-carboxamide]",≤ 100 nM,≤ 100 nM,≤ 100 nM
"Cc1sc(-c2nc(NC3CCN(S(=O)(=O)c4cnn(C)c4)CC3)ncc2C(F)(F)F)cc1C(N)=O [Example 71, 2-methyl-5-(2-((1-((1-methyl-1H-pyrazol-4-yl)sulfonyl)piperidin-4-yl)amino)-5-(trifluoromethyl)pyrimidin-4-yl)thiophene-3-carboxamide]",≤ 100 nM,≤ 100 nM,≤ 100 nM
"Cc1sc(-c2nc(NC3CCN(S(=O)(=O)c4cnn(C)c4)CC3)ncc2C(F)(F)F)cc1C#N [Example 72, 2-methyl-5-(2-((1-((1-methyl-1H-pyrazol-4-yl)sulfonyl)piperidin-4-yl)amino)-5-(trifluoromethyl)pyrimidin-4-yl)thiophene-3-carbonitrile]",≤ 100 nM,≤ 100 nM,≤ 100 nM
"CS(=O)(=O)N1CCC(Nc2ncc(C(F)(F)F)c(-c3cc(C(N)=O)cs3)n2)CC1 [Example 73, 5-(2-((1-(methylsulfonyl)piperidin-4-yl)amino)-5-(trifluoromethyl)pyrimidin-4-yl)thiophene-3-carboxamide]",≤ 100 nM,≤ 100 nM,≤ 100 nM
"Cn1cc(S(=O)(=O)N2CCC(Nc3ncc(C(F)(F)F)c(-c4cc(C(N)=O)cs4)n3)CC2)cn1 [Example 74, 5-(2-((1-((1-methyl-1H-pyrazol-4-yl)sulfonyl)piperidin-4-yl)amino)-5-(trifluoromethyl)pyrimidin-4-yl)thiophene-3-carboxamide]",≤ 100 nM,≤ 100 nM,≤ 100 nM
"COc1cc(-c2nc(NC3CCN(S(=O)(=O)c4cn(C)cn4)CC3)ncc2C(F)(F)F)sc1C [Example 75, 4-(4-methoxy-5-methylthiophen-2-yl)-N-(1-((1-methyl-1H-imidazol-4-yl)sulfonyl)piperidin-4-yl)-5-(trifluoromethyl)pyrimidin-2-amine]",≤ 100 nM,> 500 nM,> 500 nM
"COc1cc(-c2nc(NC3CCN(S(C)(=O)=O)CC3)ncc2C(F)(F)F)sc1C [Example 76, 4-(4-methoxy-5-methylthiophen-2-yl)-N-(1-(methylsulfonyl)piperidin-4-yl)-5-(trifluoromethyl)pyrimidin-2-amine]",100 to 500 nM,100 to 500 nM,> 500 nM

# Next, values leading:
IC50 (CDK2/Cyclin E2),IC50 (CDK4/Cyclin D1),IC50 (OVCAR3 p-RB),SMILES
≤ 100 nM,100 to 500 nM,> 500 nM,"Cc1sc(-c2nc(N[C@H]3CCN(S(=O)(=O)c4cn(C)cn4)C[C@H]3C)ncc2C(F)(F)F)cc1C#N [Example 53, 2-methyl-5-(2-(((3R,4S)-3-methyl-1-((1-methyl-1H-imidazol-4-yl)sulfonyl)piperidin-4-yl)amino)-5-(trifluoromethyl)pyrimidin-4-yl)thiophene-3-carbonitrile]"
≤ 100 nM,> 500 nM,> 500 nM,"Cc1sc(-c2nc(N[C@H]3CCN(S(C)(=O)=O)C[C@H]3C)ncc2C(F)(F)F)cc1C#N [Example 54, 2-methyl-5-(2-(((3R,4S)-3-methyl-1-(methylsulfonyl)piperidin-4-yl)amino)-5-(trifluoromethyl)pyrimidin-4-yl)thiophene-3-carbonitrile]"
≤ 100 nM,≤ 100 nM,100 to 500 nM,"Cc1sc(-c2nc(NC3CCN(S(=O)(=O)c4c[nH]cn4)CC3)ncc2C(F)(F)F)cc1C#N [Example 55, 5-(2-((1-((1H-imidazol-4-yl)sulfonyl)piperidin-4-yl)amino)-5-(trifluoromethyl)pyrimidin-4-yl)-2-methylthiophene-3-carbonitrile]"
≤ 100 nM,≤ 100 nM,≤ 100 nM,"CC(O)c1cnc(-c2nc(NC3CCN(S(=O)(=O)c4cn[nH]c4)CC3)ncc2C(F)(F)F)s1 (stereo not drawn) [Example 56, 1-(2-(2-((1-((1H-pyrazol-4-yl)sulfonyl)piperidin-4-yl)amino)-5-(trifluoromethyl)pyrimidin-4-yl)thiazol-5-yl)ethan-1-ol]"
≤ 100 nM,≤ 100 nM,≤ 100 nM,"CC(O)c1cnc(-c2nc(NC3CCN(S(=O)(=O)c4c[nH]cn4)CC3)ncc2C(F)(F)F)s1 (stereo not drawn) [Example 57, 1-(2-(2-((1-((1H-imidazol-4-yl)sulfonyl)piperidin-4-yl)amino)-5-(trifluoromethyl)pyrimidin-4-yl)thiazol-5-yl)ethan-1-ol]"
≤ 100 nM,≤ 100 nM,100 to 500 nM,"Cn1cc(S(=O)(=O)N2CCC(Nc3ncc(C(F)(F)F)c(-c4nccs4)n3)CC2)cn1 [Example 58, N-(1-((1-methyl-1H-pyrazol-4-yl)sulfonyl)piperidin-4-yl)-4-(thiazol-2-yl)-5-(trifluoromethyl)pyrimidin-2-amine]"
≤ 100 nM,≤ 100 nM,≤ 100 nM,"Cn1cnc(S(=O)(=O)N2CCC(Nc3ncc(C(F)(F)F)c(-c4nccs4)n3)CC2)c1 [Example 59, N-(1-((1-methyl-1H-imidazol-4-yl)sulfonyl)piperidin-4-yl)-4-(thiazol-2-yl)-5-(trifluoromethyl)pyrimidin-2-amine]"
≤ 100 nM,≤ 100 nM,≤ 100 nM,"Cn1cnc(S(=O)(=O)N2CCC(Nc3ncc(C(F)(F)F)c(-c4ncc(C(O)C(F)(F)F)s4)n3)CC2)c1 (stereo not drawn) [Example 60, 2,2,2-trifluoro-1-(2-(2-((1-((1-methyl-1H-imidazol-4-yl)sulfonyl)piperidin-4-yl)amino)-5-(trifluoromethyl)pyrimidin-4-yl)thiazol-5-yl)ethan-1-ol]"
